Holding throughout (type): in vivo
Assay [1] relates to Echinochloa crus-galli (ECHCG). Nature of the assay: Example B post-emergence herbicidal activity, glasshouse pot test. The conditions noted are these: 312 h, rate 250 g/ha, evaluated after 13 days, read-out: Post-emergence activity ECHCG (100=total damage to plant; 0=no damage to plant). Put shortly:
(§1)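 Compound sprayed in acetone/water (50:50) plus 0.5% Tween 20 onto potted soil one day post-sowing, or onto seedlings after 8 days. Scored 0–100 for damage after 13 days.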

Assay [2] deals with Setaria faberi (SETFA). Described as above. The conditions noted are these: 312 h, rate 250 g/ha, evaluated after 13 days, read-out: Post-emergence activity SETFA (100=total damage to plant; 0=no damage to plant). Put shortly: as §1
Assay [3] concerns Avena fatua (AVEFA). Described as above. The conditions noted are these: 312 h, rate 250 g/ha, evaluated after 13 days, read-out: Post-emergence activity AVEFA (100=total damage to plant; 0=no damage to plant). The essentials:
as §1

Assay [4] relates to Alopecurus myosuroides (ALOMY). The assay is described as above. The conditions noted are these: 312 h, rate 250 g/ha, evaluated after 13 days, read-out: Post-emergence activity ALOMY (100=total damage to plant; 0=no damage to plant). Put shortly:
as §1

Assay [5] relates to Amaranthus retroflexus (AMARE). The assay is described as above. The conditions noted are these: 312 h, rate 250 g/ha, evaluated after 13 days, read-out: Post-emergence activity AMARE (100=total damage to plant; 0=no damage to plant). Put shortly: as §1
Assay [6] deals with Echinochloa crus-galli (ECHCG). Nature of the assay: Example B pre-emergence herbicidal activity, glasshouse pot test. The conditions noted are these: 312 h, rate 250 g/ha, evaluated after 13 days, read-out: Pre-emergence activity ECHCG (100=total damage to plant; 0=no damage to plant). The essentials:
as §1

Assay [7] has as its system Setaria faberi (SETFA). Described as above. The conditions noted are these: 312 h, rate 250 g/ha, evaluated after 13 days, read-out: Pre-emergence activity SETFA (100=total damage to plant; 0=no damage to plant). Put shortly:
as §1

Assay [8] concerns Avena fatua (AVEFA). The assay is described as above. The conditions noted are these: 312 h, rate 250 g/ha, evaluated after 13 days, read-out: Pre-emergence activity AVEFA (100=total damage to plant; 0=no damage to plant). The essentials: as §1
In assay [9] the test system is Alopecurus myosuroides (ALOMY). The description is as above. The conditions noted are these: 312 h, rate 250 g/ha, evaluated after 13 days, read-out: Pre-emergence activity ALOMY (100=total damage to plant; 0=no damage to plant). The essentials:
as §1

The subject of assay [10] is Amaranthus retroflexus (AMARE). The description is as above. The conditions noted are these: 312 h, rate 250 g/ha, evaluated after 13 days, read-out: Pre-emergence activity AMARE (100=total damage to plant; 0=no damage to plant). Put shortly: as §1

For `Cc1ccc(-c2ccc(Cl)cc2Cl)cc1C1=C(O)C(C)(C)SC(C)(C)C1=O` [Compound C-6], the pest or weed control at 250 g/ha in assay [1] was determined as 60%; with Setaria faberi (SETFA) [2] it was 30%; in the assay with Avena fatua (AVEFA) [3], 0%; in [4], 20%; in [5] it was 40%; in assay [6], 0%. Besides, the pest or weed control at 250 g/ha (in the assay on Setaria faberi (SETFA) [7]; in the assay with Avena fatua (AVEFA) [8]; in [9]; in assay [10]) was 0% in each case.
For `CC1(C)OC(C)(C)C(O)=C(c2cc(-c3ccc(Cl)cc3F)ccc2Cl)C1=O` [Compound A-141], the pest or weed control at 250 g/ha in assay [1] amounted to 100%; with Setaria faberi (SETFA) [2] it was 80%; in the assay on Avena fatua (AVEFA) [3], 50%; in assay [4] it was 50%; in assay [5] it was 0%; in assay [6], 100%. In addition, the pest or weed control at 250 g/ha amounted to 80% in the assay on Setaria faberi (SETFA) [7], 30% with Avena fatua (AVEFA) [8], 20% in assay [9] and 0% in [10].
On to `CCc1ccc(-c2ccc(Cl)nc2C)cc1C1=C(O)C(C)(C)OC(C)(C)C1=O` [Compound A-77], for which the pest or weed control at 250 g/ha came to 100% in assay [1]; 90% in the assay on Setaria faberi (SETFA) [2]; 60% in the assay on Avena fatua (AVEFA) [3]; 70% in assay [4]; 0% in [5]; 0% in [6]. In addition, the pest or weed control at 250 g/ha in the assay on Setaria faberi (SETFA) [7] came out at 20%; in the assay on Avena fatua (AVEFA) [8] it was 0%; in [9], 10%; in [10] it was 0%.
With `C#Cc1ccc(-c2ccc(CC)c(C3=C(O)C(C)(C)OC(C)(C)C3=O)c2)cc1` [Compound A-98], the pest or weed control at 250 g/ha in [1] came to 100%; in the assay with Setaria faberi (SETFA) [2], 100%; with Avena fatua (AVEFA) [3] it was 70%; in assay [4] it was 50%; in [5], 30%; in assay [6] it was 90%. Also, the pest or weed control at 250 g/ha with Setaria faberi (SETFA) [7] turned out to be 90%; in the assay on Avena fatua (AVEFA) [8] it was 0%; in assay [9] it was 0%; in [10], 50%.
For `CCc1ccc(-c2ccc(Cl)nc2)cc1C1=C(OC(C)=O)C(C)(C)OC(C)(C)C1=O` [Compound D-22], the pest or weed control at 250 g/ha in assay [1] worked out at 100%; in the assay on Setaria faberi (SETFA) [2] it was 100%; in the assay with Avena fatua (AVEFA) [3], 100%; in assay [4], 90%; in [5], 0%; in assay [6] it was 100%. For the same molecule, the pest or weed control at 250 g/ha with Setaria faberi (SETFA) [7] stood at 100%; in the assay with Avena fatua (AVEFA) [8] it was 50%; in assay [9], 60%; in [10] it was 0%.
Turning to `CCc1ccc(-c2ccc(Cl)cc2)cc1C1=C(O)[C@@]2(C)CC[C@](C)(O2)C1=O` (single isomer, unassigned) [Compound A-83], the pest or weed control at 250 g/ha was 100% in [1]; 100% in the assay with Setaria faberi (SETFA) [2]; 80% with Avena fatua (AVEFA) [3]; 80% in assay [4]; 0% in assay [5]; 90% in assay [6]. Besides, the pest or weed control at 250 g/ha is 100% in the assay with Setaria faberi (SETFA) [7], 40% in the assay with Avena fatua (AVEFA) [8], 50% in [9] and 0% in assay [10].
`Cc1ccc(-c2cnn(Cc3ccccc3)c2)cc1C1=C(O)C(C)(C)OC(C)(C)C1=O` [Compound A-143]: the pest or weed control at 250 g/ha was 100% in [1]; 90% in the assay on Setaria faberi (SETFA) [2]; 80% with Avena fatua (AVEFA) [3]; 90% in assay [4]; 0% in assay [5]; 0% in assay [6]. The pest or weed control at 250 g/ha in the assay on Setaria faberi (SETFA) [7] is 70%; in the assay on Avena fatua (AVEFA) [8] it was 0%; in assay [9], 20%; in [10], 0%.
As for `CCc1ccc(-c2ccc(Cl)nc2)cc1C1=C(O)C(C)(C)OC(C)(C)C1=O` [Compound A-76], the pest or weed control at 250 g/ha is 100% in assay [1]; 100% in the assay on Setaria faberi (SETFA) [2]; 70% in the assay with Avena fatua (AVEFA) [3]; 90% in [4]; 0% in [5]; 70% in assay [6]. The pest or weed control at 250 g/ha with Setaria faberi (SETFA) [7] worked out at 100%; with Avena fatua (AVEFA) [8], 50%; in assay [9] it was 60%; in assay [10], 0%.
On to `Cc1ccc(-c2ccc(Br)cc2)cc1C1=C(O)C(C)(C)OC(C)(C)C1=O` [Compound A-82], for which the pest or weed control at 250 g/ha turned out to be 100% in [1]; 100% with Setaria faberi (SETFA) [2]; 100% in the assay on Avena fatua (AVEFA) [3]; 100% in assay [4]; 0% in assay [5]; 100% in [6]. Further, the pest or weed control at 250 g/ha with Setaria faberi (SETFA) [7] stood at 90%; in the assay with Avena fatua (AVEFA) [8], 90%; in assay [9], 80%; in assay [10], 20%.
In the case of `CCc1ccc(-c2ccc(Cl)cc2Cl)cc1C1=C(O)C(C)(C)OC(C)C1=O` (single isomer, unassigned) [Compound A-71], the pest or weed control at 250 g/ha was determined as 100% in assay [1]; 100% with Setaria faberi (SETFA) [2]; 30% in the assay on Avena fatua (AVEFA) [3]; 30% in assay [4]; 100% in [5]; 80% in assay [6]. In addition, the pest or weed control at 250 g/ha in the assay with Setaria faberi (SETFA) [7] amounted to 100%; in the assay on Avena fatua (AVEFA) [8] it was 20%; in assay [9], 40%; in assay [10], 0%.
With `CCc1ccc(-c2ccc(Cl)c(C(F)(F)F)c2F)cc1C1=C(O)C(C)(C)OC(C)(C)C1=O` [Compound A-154], the pest or weed control at 250 g/ha turned out to be 100% in assay [1]; 100% in the assay with Setaria faberi (SETFA) [2]; 70% in the assay with Avena fatua (AVEFA) [3]; 100% in assay [4]; 0% in assay [5]; 100% in assay [6]. Moreover, the pest or weed control at 250 g/ha in the assay on Setaria faberi (SETFA) [7] is 90%; in the assay with Avena fatua (AVEFA) [8], 20%; in assay [9], 50%; in assay [10] it was 0%.
